Patent US8962622B2, “Benzotriazole kinase modulators” (Roche Palo Alto LLC, priority 2006, dated 2015)

Structure (SMILES) | melting point
OC[C@H]1CCCC[C@H]1Nc1nccc(-n2nnc3ccccc32)n1 [Example 9, (1S,2R)-[2-(4-benzotriazol-1-yl-pyrimidin-2-ylamino)-cyclohexyl]-methanol] | 206.1 to 207.8 °C
CN(c1nccc(-n2nnc3ccccc32)n1)[C@H]1CC[C@H](N(C)S(C)(=O)=O)CC1 [Example 14, N-{trans-4-[(4-benzotriazol-1-yl-pyrimidin-2-yl)-methyl-amino]-cyclohexyl}-N-methyl-methanesulfonamide] | 203.5 to 204 °C
O=C1CCC(=O)N1[C@H]1CC[C@H](Nc2nccc(-n3nnc4ccccc43)n2)CC1 [Example 15, 1-[trans-4-(4-benzotriazol-1-yl-pyrimidin-2-ylamino)-cyclohexyl]-pyrrolidine-2,5-dione] | 205 to 210 °C
O=C1CCC(Nc2nccc(-n3nnc4ccccc43)n2)CC1 [Example 16, 4-(4-benzotriazol-1-yl-pyrimidin-2-ylamino)-cyclohexanone] | 204.9 to 206.5 °C
CC1(O)CCC(Nc2nccc(-n3nnc4ccccc43)n2)CC1 (stereo not drawn) [Example 17, 4-(4-benzotriazol-1-yl-pyrimidin-2-ylamino)-1-methyl-cyclohexanol] | 202.1 to 205.6 °C
COCC(=O)N[C@H]1CC[C@H](Nc2nccc(-n3nnc4ccccc43)n2)CC1 [Example 24, trans-N-[4-(4-Benzotriazol-1-yl-pyrimidin-2-ylamino)-cyclohexyl]-2-methoxy-acetamide] | 233.5 to 235.4 °C
